Source: patent US9060541B2, “Sterilizer for foods” (Kawakami Co., Ltd., priority 2009, dated 2015)
Read-outs that look alike come from different tables or passages of the source.

Experiments:
Format in all cases: cell-based
Set-up in all cases: key: D: There is no sterilization effect.; C: There is a sterilization effect in step (1) but no sterilization effect in step (2).; B: There is a sterilization effect up to step (2) but no sterilization effect in step (3).; A: There is a sterilization effect up to step (3)
[1] = system: Vibrio cholerae non-O1 non-O139 KX-N105
[2] = system: Salmonella serotype Enteritidis KX-S148; assay: Comparison test of sterilization effects against various food poisoning microbes
[3] = system: Vibrio cholerae O139 MO45
[4] = system: Shigella flexneri subtype 1b KX-H273; assay: Comparison test of sterilization effects against various food poisoning microbes
[5] = system: Pseudomonas anguilliseptica NCMB1950; assay: as above
[6] = system: Shigella dysenteriae serotype 2 KX-H214
[7] = system: Salmonella serotype Anatum KX-S152; assay: Comparison test of sterilization effects against various food poisoning microbes
[8] = system: Staphylococcus aureus 080392-1 Toxin type A; assay: as above
Vibrio mimicus KX-M5 = assay: as above
[9] = system: Plesiomonas shigelloides KX-P1945; assay: as above
[10] = system: Clostridium perfringens NCTC8237
Bacillus cereus Kyoto 1 = assay: Comparison test of sterilization effects against various food poisoning microbes
[11] = system: Salmonella serotype Krefeld KX-S124; assay: as above
[12] = system: Salmonella serotype Agona KX-S143; assay: as above
[13] = system: Vibrio cholerae O1 NIH 41
[14] = Table 7, test microbe solution without yeast extract
[15] = Table 8, yeast extract 4 weight % blended in test microbe solution

`CCO` [EtOH 30%, ethanol] was tested, and the Sterilization effect [1, 14] was “C”, the Sterilization effect [1, 15] was “C” and the Sterilization effect [2, 14] was “C”. For the same molecule, the Sterilization effect [2, 15] was “C”, the Sterilization effect [3, 14] was “B” and the Sterilization effect [3, 15] was “C”. For the same molecule, the Sterilization effect [4, 14] was “C”, the Sterilization effect [4, 15] was “D” and the Sterilization effect [5, 14] was “B”. The Sterilization effect [5, 15] was “B”, the Sterilization effect [6, 14] was “C” and the Sterilization effect [6, 15] was “C”. For the same molecule, the Sterilization effect [7, 14] was “C”, the Sterilization effect [7, 15] was “C” and the Sterilization effect [8, 14] was “B”. The Sterilization effect [8, 15] was “D”, the Sterilization effect (Vibrio mimicus KX-M5; [14]) was “C” and the Sterilization effect (Vibrio mimicus KX-M5; [15]) was “C”. The Sterilization effect [9, 14] was “B”, the Sterilization effect [9, 15] was “B” and the Sterilization effect [10, 14] was “D”. The Sterilization effect [10, 15] was “D”, the Sterilization effect (Bacillus cereus Kyoto 1; [14]) was “C” and the Sterilization effect (Bacillus cereus Kyoto 1; [15]) was “D”. The Sterilization effect [11, 14] was “C”, the Sterilization effect [11, 15] was “C” and the Sterilization effect [12, 14] was “C”. For the same molecule, the Sterilization effect [12, 15] was “C”, the Sterilization effect [13, 14] was “B” and the Sterilization effect [13, 15] was “C”.

With `[Na+].[O-]Cl` [S.H 150 ppm, sodium hypochlorite] the Sterilization effect [1, 14] was “A”, the Sterilization effect [1, 15] was “D” and the Sterilization effect [2, 14] was “A”. For the same molecule, the Sterilization effect [2, 15] was “D”, the Sterilization effect [3, 14] was “A” and the Sterilization effect [3, 15] was “D”. For the same molecule, the Sterilization effect [4, 14] was “A”, the Sterilization effect [4, 15] was “D” and the Sterilization effect [5, 14] was “A”. The Sterilization effect [5, 15] was “D”, the Sterilization effect [6, 14] was “A” and the Sterilization effect [6, 15] was “C”. The Sterilization effect [7, 14] was “A”, the Sterilization effect [7, 15] was “D” and the Sterilization effect [8, 14] was “A”. For the same molecule, the Sterilization effect [8, 15] was “D”, the Sterilization effect (Vibrio mimicus KX-M5; [14]) was “A” and the Sterilization effect (Vibrio mimicus KX-M5; [15]) was “D”. For the same molecule, the Sterilization effect [9, 14] was “A”, the Sterilization effect [9, 15] was “C” and the Sterilization effect [10, 14] was “A”. For the same molecule, the Sterilization effect [10, 15] was “D”, the Sterilization effect (Bacillus cereus Kyoto 1; [14]) was “A” and the Sterilization effect (Bacillus cereus Kyoto 1; [15]) was “D”. The Sterilization effect [11, 14] was “A”, the Sterilization effect [11, 15] was “D” and the Sterilization effect [12, 14] was “A”. The Sterilization effect [12, 15] was “D”, the Sterilization effect [13, 14] was “A” and the Sterilization effect [13, 15] was “D”.
